Test results: PMC6934184, “Selective DNA-PKcs inhibition extends the therapeutic index of localized radiotherapy and chemotherapy” (The Journal of Clinical Investigation, 2019)

Key:
[1] = tested on: Calu-6 subcutaneous xenografts; experiment: subcutaneous Calu-6 xenograft with tumor-localized irradiation; type: in vivo, mouse; conditions: for mean tumor volume: NU5455 30 mg/kg oral single dose 30 min before 3.3 Gy
Experimental: Subcutaneous non–small cell lung cancer xenografts were generated in CD-1 nude or BALB/c nude mice using A549 and Calu-6 cells, respectively, as previously described ([53]). When tumors reached 100 mm^3, mice were randomized into 4 groups (n = 7–9 per group) to receive (a) vehicle (orally) 30 minutes before mock radiation, (b) NU5455 (30 mg/kg orally) 30 minutes before mock radiation, (c) targeted tumor radiation at a single dose of 3.3 or 10 Gy, or (d) NU5455 (30 mg/kg orally) 30 minutes before 3.3 Gy or 10 Gy targeted tumor radiation. For targeted irradiation of subcutaneous tumors, anesthetized mice were restrained in a lead-shielded container with only the tumor exposed, and x-ray radiation applied using an RS320 irradiation system (Gulmay Medical) at a dose rate of 1.82 Gy/min.
Establishment of subcutaneous NSCLC xenograft models
NSCLC subcutaneous xenografts were generated as previously described ( 53). Briefly, 6-8 week-old female BALB/c nude or CD-1 nude mice (Charles River Laboratories) were anaesthetized with 2% isoflurane (Zoetis), and 5 x 10^6 Calu-6 or A549 cells in 50% Matrigel (BD Biosciences), respectively, were subcutaneously injected into a single site on the back of the mouse. Mouse weights and tumor volumes (1/2 x length x width x depth) were measured three times a week.
Targeted radiotherapy in subcutaneous and orthotopic NSCLC xenograft models When subcutaneous xenografts reached 100 mm3, mice were randomized into four groups (n = 7 - 11/group): (i) N-Methyl-2-pyrrolidone (NMP): 30% Encapsin : PEG400 (1:6:3 v/v/v) vehicle p.o. 30 minutes prior to mock radiation. (ii) NU5455 (30 mg/kg p.o.) 30 minutes prior to mock radiation. (iii) Targeted tumor radiation at a single dose of 3.3 or 10 Gy. (iv) NU5455 (30 mg/kg p.o.) 30 minutes prior to 3.3 Gy or 10 Gy targeted tumor radiation. For targeted irradiation of subcutaneous tumors, anaesthetized mice were restrained in a lead -shielded container with only the tumor exposed. X -ray radiation was applied using an RS320 irradiation system ( Gulmay Medical) at a dose rate of 1.82 Gy/minute. Three animals from each group were humanely killed at 5 and/or 24 hours after irradiation, and the tumors processed for immunohistochemistry (IHC). […]
Immunohistochemistry in lung tumor xenografts and normal lung tissue
Tissues were fixed in 4% paraformaldehyde (PFA) and paraffin -embedded. Sections were stained using primary antibodies against γH2AX (JBW301, 1:1000, Millipore #05-636), 53BP1 (1:500, Cell Signaling #4937), and cleaved caspase 3 (CC3, 1:600, Cell Signaling #9661) and the EnVision G2 Doublestain System (Dako #K5361), according to the manufacturer’s instructions. One tissue section from each of 3 mice per group was examined, and the whole

[2] = tested on: orthotopic Calu-6 lung tumors; experiment: orthotopic Calu-6 lung tumor with thoracic radiation, bioluminescent imaging; type: in vivo; conditions: single dose 30 mg/kg + 10 Gy thoracic radiation
Experimental: Orthotopic lung xenografts were generated following a published protocol ([54]) with minor modifications. Briefly, CD-1 nude mice (Charles River Laboratories) were anesthetized with 2% isoflurane and placed in the right lateral decubitus position. Luciferase-expressing Calu-6 cells (1 × 10^6) in 50 μL of 50% (vol/vol) Matrigel were injected into the left lateral thorax at the lateral dorsal axillary line, 1.5 cm above the lower rib line. The needle was advanced 5 mm into the thorax. After injection, the mouse was turned to the left lateral decubitus position for 5 minutes. […]
NSCLC subcutaneous xenografts were generated as previously described ( 53). […] Mouse weights and tumor volumes (1/2 x length x width x depth) were measured three times a week.
Targeted radiotherapy in subcutaneous and orthotopic NSCLC xenograft models When subcutaneous xenografts reached 100 mm3, mice were randomized into four groups (n = 7 - 11/group): (i) N-Methyl-2-pyrrolidone (NMP): 30% Encapsin : PEG400 (1:6:3 v/v/v) vehicle p.o. 30 minutes prior to mock radiation. […] The remaining mice were monitored for tumor growth until the sizes of tumo rs reached 400 mm 3 or up to 38 days after initiation of […]
Tumor growth in the remaining mice was monitored by bioluminescent imaging on days 0, 4, 8 and 15 post-treatment. […] Data were analyzed using LivingImage software (PerkinElmer). […]

CN(C(=O)CN1CCOCC1)c1ccc2sc3c(-c4cccc5c(=O)cc(N6CC7CCC(C6)O7)oc45)cccc3c2c1 [NU5455]
adverse effect or impact on body weight ([1]; NU5455 30 mg/kg oral + 10 Gy): without any adverse effect or impact on body weight | antitumor response ([1]; NU5455 30 mg/kg oral + 10 Gy): regression of Calu-6 tumors was induced | mean tumor volume ([1]; day 0): 104 mm^3 | mean tumor volume ([1]; day 6): 102 mm^3 | mice having no evidence of tumor at the end of the experiment ([1]; day 38, NU5455 30 mg/kg oral + 10 Gy): 3 of 6 | radiation-induced γH2AX foci remaining, fold greater with concomitant NU5455 ([1]; tumor, 5 hours after 3.3 Gy, 30 mg/kg oral): 3.0 fold | tolerability [2]: well tolerated | antitumor effect of radiation (time to 4-fold increase in bioluminescent signal) ([2]; CD-1 nude mice): enhanced the antitumor effect of the radiation
